Data on 1 compound can be found in patent US20090054414A1, “Rufinamide for the Treatment of Post-Traumatic Stress Disorder” (SYNOSIA THERAPEUTICS, priority 2007, published 2009).

The subject of test [1] is “intruder” rat. The test can be described thus: social exploration test in rats. It counts as in vivo. As to conditions: vs vehicle. An excerpt:
There remains a paucity of data investigating the anxiolytic potential of this rufinamide. Therefore the aim of the present study was to test the effect of rufinamide (FIG. 1, chemical structure of rufinamide) with regard to a possible facilitation of social behavior (anxiolytic-like effect) using the social exploration test in rats as a paradigm. The basis of this test is that when an adult “resident” rat is kept in social isolation for two weeks, its natural tendency to establish territorial defensive reactions is increased. […] Male adult Sprague Dawley rats (Ra238, OFA/IC strain, Iffa Credo, France) (“residents”) weighing 350-400 g and young Lister Hooded rats (li/ho, Harlan, The Netherlands) (“intruders”) weighing 100-120 g were used. “Intruders” were housed in pairs and the “residents” were individually housed for two weeks before the test in plastic cages (Macrolon, 42×26×15 cm). All animals lived in a room lit from 6 a.m. until 6 p.m. and had always free access to standard food and water. […]
Pairs consisting of one “intruder” rat and one “resident” rat were assigned at random to one of the experimental or the control groups. […] The duration of active approach behaviors of the “intruder” rat (sniffing, anogenital exploration, nosing, grooming, licking, playing) towards the “resident” was manually registered and cumulatively recorded over a period of 5 minutes. […]

The test system of test [2] is male OF-1 “intruder” mice. The test can be described thus: Intruder test (social withdrawal of intruder mice). It counts as in vivo, mouse. Here is the method: Rufinamide, a Na-channel blocker and anti-epileptic agent, and carbamazepine, an anticonvulsant employed to treat bipolar disorder, were given to male OF-1 “intruder” in oral-doses of 1/3/10 mg/kg, 1 hr before the animals were confronted with an individually-housed, aggressive, male OF-1 resident mouse. […] This increase in social investigation (sociotropic effect) was accompanied by a decrease in the frequency and duration of defensive ambivalence probably through competitive inhibition. No signs of motor stimulation were detected.
The Intruder test duplicates a territorial encounter between a territory holder (aggressive male) and a subordinate “intruder” mouse. […] In this test the intruders receive the treatment whereas the residents remain untreated. (Dixon, A. K., Huber, C., Lowe, D. J. Clin. Psychiatry. 55 (9) Suppl B, 4-7 (1994)). For purposes of this study, rufinamide and carbamazepine were given orally to intruder mice 1 hr before being introduced singly to aggressive residents using doses of ⅓ and 10 mg/kg.
Over 60 ethological elements describing the social and non-social behaviour of mice based on the ethogram originally proposed by Grant and Mackintosh (Grant, E. C. Mackintosh, J. H. Behaviour 21: 246-259 (1963) ) and classified according to 9 behavioural categories (Dixon, A. K., Huber, C., Fisch, H. U. Adv. Study. Behaviour. 19: 171-204 (1990)) form the rodent ethogram as used in this test (FIG. 3).

The subject of test [3] is male OF-1 mice. Briefly: half-enclosed platform (HEP) test. It counts as in vivo, mouse. As to conditions: 0.32/1/3.2 and 10 mg/kg p.o., 1 hr before testing. The text has this:
Rufinamide and carbamazepine were compared in the half-enclosed platform (HEP) test. The test determines how drugs affect the exploratory behaviour of a mouse placed upon a novel, half-enclosed platform and gives information as to whether a drug is a stimulant, depressant or disinhibitory as with, for example the benzodiazepines which increase exploration of the platform. It is also useful for determining duration of action and dose-findings studies. The HEP is a further development of the simple elevated platform used by Kaesermann to assess anxiolytic properties of drugs (Ref. Käsermann H. P. (1986) Psychopharmacol. 89:31-37). In this study carbamazepine and rufinamide were tested in the same dose ranges i.e. 0.32/1/3.2 and 10 mg/kg p.o. of each were given to male OF-1 mice 1 hr before testing.
The ethogram used consists of 9 elements of exploratory behaviour two of which involve static postures i.e. immobility and stretched attend posture, the latter being an ambivalent element indicative of approach-avoidance conflict. These elements are immediately spontaneous and are not induced by either training or punishment procedures. Upright postures which are posturally demanding are useful to detect muscle relaxation e.g. rearing (FIG. 10).

[4] abbreviates: 1/3/10 mg/kg oral, 1 hr before encounter.

With `NC(=O)c1cn(Cc2c(F)cccc2F)nn1` [rufinamide, 1-(2,6-difluorobenzyl)-1H-1,2,3-triazole-4-carboxamide], the “time spent in social contact” value in test [1] (rufinamide 0.3 mg/kg p.o., 1 hour after application) is recorded as “did not induce any significant change”. Moreover, in test [1] (rufinamide 1, 3, 10, 30 and 100 mg/kg p.o., tested 1 hour after application, 5 min observation), the “duration of social contacts of an intruder toward a resident rat” value is reported as “significantly increased”. Also, the “non-social (NS) behaviour, frequency” value in test [2] (1/3/10 mg/kg oral, 1 hr before 6 minute encounter) is recorded as “significant, dose-related increase”. For the same compound, the “social investigation (SI)” value in test [2] (1/3/10 mg/kg oral, 1 hr before 6 minute encounter, frequency and duration) is “increased, albeit in a bell-shaped manner with only changes at 3 mg/kg attaining significance”. Also, in test [2] (setting [4]), the “duration of defensive ambivalence (DA), arrested flight (AF) and escape” value was “significantly reduced but not uniformly”; the “frequencies of arrested flight and escape” value was “only reduced significantly at 1 mg/kg”; the “time spent in non-social activities” value is reported as “only weakly following suit”; the “total number of ethological elements performed in the 6 minute encounter” value is recorded as “increased in a dose-related manner”. The “time spent in static flight (SF) postures” value in test [2] (at 3 and 10 mg/kg oral, 1 hr before encounter) is on record as “significant shortening”. In addition, the “dose which is sociotropic in the intruder test” value in test [2] (oral) amounted to 3 mg/kg. In addition, in test [3], the “changes in durations of exploratory and stationary elements” value is “followed suit but rarely attained statistical significance”; the “duration of head raising in the open half” value is reported as “increased”; the “duration of inactivity (sta) in the enclosed half” value is given as “shortened”; the “frequencies of stationary elements (Sta: sitting still, inactivity)” value is reported as “decreased in a significant manner”. In addition, in test [3] (dose-related), the “exploratory elements stretched attend posture (sap), head raising (hu) and forward locomotion (go), frequency” value is listed as “significantly increased”.
